How the values were obtained:
Type in all cases: in vivo
[1] = tested on: barnyardgrass (Echinochloa crus-galli); assay: Test G Pre-Emergence Protocol; conditions: Echinochloa crus-galli, pre-emergence, 312 h, evaluated after 13 days
How it was run: (§1)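 Herbicidal effect was rated 13 days post-application on a scale where 100 equals total damage. Spraying took place the day after sowing, using 15.625, 62.5 or 250 g/ha of compound in a 50:50 acetone/water solution with 0.5% Tween 20.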

[2] = tested on: corn (Zea mays); assay: Test G Pre-Emergence Protocol; conditions: Zea mays, pre-emergence, 312 h, evaluated after 13 days
How it was run: as §1

[3] = tested on: giant foxtail (Setaria faberi); assay: Test G Pre-Emergence Protocol; conditions: Setaria faberi, pre-emergence, 312 h, evaluated after 13 days
How it was run: as §1

[4] = tested on: ivy-leaved morning glory (Ipomoea hederacea); assay: Test G Pre-Emergence Protocol; conditions: Ipomoea, pre-emergence, 312 h, evaluated after 13 days
How it was run: as §1

[5] = tested on: redroot pigweed (Amaranthus retroflexus); assay: Test G Pre-Emergence Protocol; conditions: Amaranthus retroflexus, pre-emergence, 312 h, evaluated after 13 days
How it was run: as §1

[6] = tested on: velvetleaf (Abutilon theophrasti); assay: Test G Pre-Emergence Protocol; conditions: Abutilon theophrasti, pre-emergence, 312 h, evaluated after 13 days
How it was run: as §1

[7] = tested on: barnyardgrass (Echinochloa crus-galli); assay: Test G Post-Emergence Protocol; conditions: Echinochloa crus-galli, post-emergence, 312 h, read-out: Barnyardgrass damage rating
How it was run: (§2)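 Eight days post-sowing, plants received a spray of test compound (acetone/water 50:50, 0.5% Tween 20) at 15.625, 62.5 or 250 g/ha. Glasshouse regime thereafter: 24/16 °C, 14 h light, 65% humidity. Assessment after 13 days on a 0–100 damage scale.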

[8] = tested on: corn (Zea mays); assay: Test G Post-Emergence Protocol; conditions: Zea mays, post-emergence, 312 h, read-out: Corn damage rating
How it was run: as §2

[9] = tested on: giant foxtail (Setaria faberi); assay: Test G Post-Emergence Protocol; conditions: Setaria faberi, post-emergence, 312 h, read-out: Foxtail, Giant damage rating
How it was run: as §2

[10] = tested on: ivy-leaved morning glory (Ipomoea hederacea); assay: Test G Post-Emergence Protocol; conditions: Ipomoea, post-emergence, 312 h, read-out: Morningglory, Ivy-leaved damage rating
How it was run: as §2

[11] = tested on: redroot pigweed (Amaranthus retroflexus); assay: Test G Post-Emergence Protocol; conditions: Amaranthus retroflexus, post-emergence, 312 h, read-out: Pigweed, Redroot damage rating
How it was run: as §2

[12] = tested on: velvetleaf (Abutilon theophrasti); assay: Test G Post-Emergence Protocol; conditions: Abutilon theophrasti, post-emergence, 312 h, read-out: Velvetleaf damage rating
How it was run: as §2

[13] = 15.625 g ai/ha, evaluated after 13 days (100=total damage to plant; 0=no damage to plant)
[14] = 62.5 g ai/ha, evaluated after 13 days, 100=total damage to plant, 0=no damage to plant
[15] = 250 g ai/ha, evaluated after 13 days, 100=total damage to plant, 0=no damage to plant

`CN1C[C@@H](c2ccc(C(F)(F)F)cc2)[C@H](C(=O)Nc2ccc(F)nc2F)C1=O` (racemic) [Compound 1650] was tested, and the pest or weed control at 15.625 g/ha ([1]; 15.625 g ai/ha, read-out: Barnyardgrass damage rating (100=total damage to plant; 0=no damage to plant)) was 10%, the pest or weed control at 62.5 g/ha ([1]; 62.5 g ai/ha, 100=total damage to plant, 0=no damage to plant, read-out: Barnyardgrass damage rating) was 70% and the pest or weed control at 250 g/ha ([1]; 250 g ai/ha, read-out: Barnyardgrass damage rating (100=total damage to plant; 0=no damage to plant)) was 90%. It also gave a plant injury at 15.625 g/ha ([2]; 15.625 g ai/ha, read-out: Corn damage rating (100=total damage to plant; 0=no damage to plant)) of 0%, a plant injury at 62.5 g/ha ([2]; 62.5 g ai/ha, 100=total damage to plant, 0=no damage to plant, read-out: Corn damage rating) of 0% and a plant injury at 250 g/ha ([2]; 250 g ai/ha, read-out: Corn damage rating (100=total damage to plant; 0=no damage to plant)) of 80%. For the same compound, the pest or weed control at 15.625 g/ha ([3]; 15.625 g ai/ha, read-out: Foxtail, Giant damage rating (100=total damage to plant; 0=no damage to plant)) was 40%, the pest or weed control at 62.5 g/ha ([3]; 62.5 g ai/ha, 100=total damage to plant, 0=no damage to plant, read-out: Foxtail, Giant damage rating) was 90% and the pest or weed control at 250 g/ha ([3]; 250 g ai/ha, read-out: Foxtail, Giant damage rating (100=total damage to plant; 0=no damage to plant)) was 90%. The pest or weed control at 15.625 g/ha ([4]; 15.625 g ai/ha, read-out: Morningglory, Ivy-leaved damage rating (100=total damage to plant; 0=no damage to plant)) was 0%, the pest or weed control at 62.5 g/ha ([4]; 62.5 g ai/ha, 100=total damage to plant, 0=no damage to plant, read-out: Morningglory, Ivy-leaved damage rating) was 0% and the pest or weed control at 250 g/ha ([4]; 250 g ai/ha, read-out: Morningglory, Ivy-leaved damage rating (100=total damage to plant; 0=no damage to plant)) was 0%. The pest or weed control at 15.625 g/ha ([5]; 15.625 g ai/ha, read-out: Pigweed, Redroot damage rating (100=total damage to plant; 0=no damage to plant)) was 0%, the pest or weed control at 62.5 g/ha ([5]; 62.5 g ai/ha, 100=total damage to plant, 0=no damage to plant, read-out: Pigweed, Redroot damage rating) was 70% and the pest or weed control at 250 g/ha ([5]; 250 g ai/ha, read-out: Pigweed, Redroot damage rating (100=total damage to plant; 0=no damage to plant)) was 80%. The pest or weed control at 15.625 g/ha ([6]; 15.625 g ai/ha, read-out: Velvetleaf damage rating (100=total damage to plant; 0=no damage to plant)) was 0%, the pest or weed control at 62.5 g/ha ([6]; 62.5 g ai/ha, 100=total damage to plant, 0=no damage to plant, read-out: Velvetleaf damage rating) was 0% and the pest or weed control at 250 g/ha ([6]; 250 g ai/ha, read-out: Velvetleaf damage rating (100=total damage to plant; 0=no damage to plant)) was 50%. The pest or weed control at 15.625 g/ha [7, 13] was 40%, the pest or weed control at 62.5 g/ha [7, 14] was 80% and the pest or weed control at 250 g/ha [7, 15] was 80%. The plant injury at 15.625 g/ha [8, 13] was 10%, the plant injury at 62.5 g/ha [8, 14] was 50% and the plant injury at 250 g/ha [8, 15] was 70%. The pest or weed control at 15.625 g/ha [9, 13] was 70%, the pest or weed control at 62.5 g/ha [9, 14] was 80% and the pest or weed control at 250 g/ha [9, 15] was 80%. It also gave a pest or weed control at 15.625 g/ha [10, 13] of 20%, a pest or weed control at 62.5 g/ha [10, 14] of 10% and a pest or weed control at 250 g/ha [10, 15] of 20%. The pest or weed control at 15.625 g/ha [11, 13] was 10%, the pest or weed control at 62.5 g/ha [11, 14] was 70% and the pest or weed control at 250 g/ha [11, 15] was 80%. For the same compound, the pest or weed control at 15.625 g/ha [12, 13] was 0%, the pest or weed control at 62.5 g/ha [12, 14] was 20% and the pest or weed control at 250 g/ha [12, 15] was 40%.

Source: patent US12077503B2, “Substituted cyclic amides and their use as herbicides” (FMC CORPORATION, priority 2015, dated 2024)
